Source: BindingDB's records for doi:10.1021/ja058636j (Purdue University, 2006)

Experiments:
Assay in all cases: Enzyme Inhibition Measurements
Settings in all cases: pH 4.5; 37 °C
[1] = target: T1, Beta-secretase 2 (Homo sapiens, UniProt Q9Y5Z0)
T1 sequence (Q9Y5Z0 whole entry): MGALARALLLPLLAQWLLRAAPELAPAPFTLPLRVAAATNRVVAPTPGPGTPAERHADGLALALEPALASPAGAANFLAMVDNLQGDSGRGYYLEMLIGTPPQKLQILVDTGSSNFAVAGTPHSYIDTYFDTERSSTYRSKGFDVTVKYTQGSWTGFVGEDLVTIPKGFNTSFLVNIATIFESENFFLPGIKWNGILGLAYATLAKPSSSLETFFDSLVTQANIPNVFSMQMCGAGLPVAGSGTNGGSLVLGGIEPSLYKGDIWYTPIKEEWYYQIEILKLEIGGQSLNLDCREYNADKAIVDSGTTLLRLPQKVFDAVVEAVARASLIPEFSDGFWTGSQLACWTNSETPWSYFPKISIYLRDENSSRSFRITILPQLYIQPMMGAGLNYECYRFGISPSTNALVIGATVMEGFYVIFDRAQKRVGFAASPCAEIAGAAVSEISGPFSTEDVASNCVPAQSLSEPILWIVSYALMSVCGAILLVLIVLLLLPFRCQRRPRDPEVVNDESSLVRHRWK
Description: (§1) Enzyme activities were assayed by monitoring the hydrolysis of substrate in the presence or absence of inhibitor compounds. The hydrolysis was recorded as the increase in fluorescence intensity over a 10 min time period. […] The Ki was calculated by using Ki = IC50/ (1 + [S]/Km), and a Km value determined according to Michaelis-Menten.

[2] = target: Cathepsin D (Homo sapiens, UniProt P07339)
Chain of Cathepsin D (P07339 65-162 limits assumed): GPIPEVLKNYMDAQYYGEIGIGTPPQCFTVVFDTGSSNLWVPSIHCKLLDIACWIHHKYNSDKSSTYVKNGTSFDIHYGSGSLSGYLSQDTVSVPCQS
Chain of Cathepsin D (P07339 169-412 limits assumed): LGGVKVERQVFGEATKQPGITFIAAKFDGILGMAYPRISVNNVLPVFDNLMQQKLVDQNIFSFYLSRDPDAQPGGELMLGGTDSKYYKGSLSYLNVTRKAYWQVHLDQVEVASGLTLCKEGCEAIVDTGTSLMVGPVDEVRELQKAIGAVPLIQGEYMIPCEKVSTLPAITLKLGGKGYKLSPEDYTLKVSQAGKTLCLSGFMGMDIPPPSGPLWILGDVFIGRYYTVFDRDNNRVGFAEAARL
Description: as §1

[3] = target: Beta-secretase 1 (Homo sapiens, UniProt P56817)
Chain of Beta-secretase 1 (P56817 whole entry): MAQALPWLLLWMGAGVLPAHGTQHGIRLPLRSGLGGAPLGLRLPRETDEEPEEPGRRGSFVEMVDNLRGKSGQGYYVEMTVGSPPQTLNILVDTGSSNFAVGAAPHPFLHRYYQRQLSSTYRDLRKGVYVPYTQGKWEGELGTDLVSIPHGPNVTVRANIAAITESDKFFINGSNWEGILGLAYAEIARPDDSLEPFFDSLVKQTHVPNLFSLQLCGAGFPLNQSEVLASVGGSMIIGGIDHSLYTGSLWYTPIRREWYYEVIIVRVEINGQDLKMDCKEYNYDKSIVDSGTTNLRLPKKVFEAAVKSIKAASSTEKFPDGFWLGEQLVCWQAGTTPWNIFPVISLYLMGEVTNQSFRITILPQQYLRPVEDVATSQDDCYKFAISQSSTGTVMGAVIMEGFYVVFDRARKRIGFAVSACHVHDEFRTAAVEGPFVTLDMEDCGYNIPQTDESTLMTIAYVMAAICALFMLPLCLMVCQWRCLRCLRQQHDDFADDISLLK
Description: as §1

| Structure (SMILES) | Ki [1] [nM] | Ki [2] [nM] | Ki [3] [nM] |
| --- | --- | --- | --- |
| CSC[C@H](NC(=O)OCn1nc(C)cc1C)C(=O)N[C@@H](CC(C)C)[C@@H](O)C[C@@H](C)C(=O)N[C@H](C(=O)NCC(C)C)C(C)C [(3,5-dimethyl-1H-pyrazol-1-yl)methyl N-[(1R)-1-{[(1R,3S,4S)-3-hydroxy-1,6-dimethyl-1-{[(1S)-2-methyl-1-[(2-methylpropyl)carbamoyl]propyl]carbamoyl}heptan-4-yl]carbamoyl}-2-(methylsulfanyl)ethyl]carbamate] | 161 | 15 | 4.4 |
| CSCC[C@H](NC(=O)OCn1nc(C)cc1C)C(=O)N[C@@H](CC(C)C)[C@@H](O)C[C@@H](C)C(=O)N[C@H](C(=O)NCc1ccccc1)C(C)C [(3,5-dimethyl-1H-pyrazol-1-yl)methyl N-[(1S)-1-{[(1R,3S,4S)-1-{[(1S)-1-(benzylcarbamoyl)-2-methylpropyl]carbamoyl}-3-hydroxy-1,6-dimethylheptan-4-yl]carbamoyl}-3-(methylsulfanyl)propyl]carbamate] |  | 25 | 14 |
| Cc1nc(COC(=O)N[C@@H](CS(C)(=O)=O)C(=O)N[C@@H](CC(C)C)[C@@H](O)C[C@@H](C)C(=O)N[C@H](C(=O)NCC(C)C)C(C)C)c(C)o1 [N2-[(2R,4S,5S)-5-{[N-{[(2,5-dimethyl-1,3-oxazol-4-yl)methoxy]carbonyl}-3-(methylsulfonyl)-L-alanyl]amino}-4-hydroxy-2,7-dimethyloctanoyl]-N-(2-methylpropyl)-L-valinamide] | 458 | 304 | 0.12 |
